US20250213526A1, “TRIPLE UPTAKE INHIBITOR FOR THE TREATMENT OF ATYPICAL DEPRESSION” (priority 2022, published 2025)
Entries after “also recorded” stand apart in the source; their conditions may differ.

Key:
Type in all cases: in vivo, rat
male Sprague-Dawley rats = assay: Binge-like eating of chocolate; details: for chocolate intake vs VEH: 4 h pre-treatment, 1-hr session
Excerpt: Methods. A new group of male Sprague-Dawley rats (n=8; initial weight 300-325 g) was used for the binge-like eating experiment. They were pair-housed under the same conditions described above, however, they were not food restricted, and in the home cage were allowed ad libitum access to food (laboratory chow) and water. Acquisition of the binge-like eating took place over the course of 12 exposure sessions. A 3-day, 1-hr habituation exposure to an empty feeding cage with a ceramic dish took place before chocolate exposure. With chocolate exposure, rats received chocolate (0.3 g fat, 0.57 g carbohydrate, and 0.073 g protein with a total of 5.34 kcal/g) on days 1, 2, 4, 6, 7, 9, 12, 14, 15, 18, 23, and 28. On exposure days, rats were placed in an empty feeding cage with a ceramic dish containing ground chocolate for 1 hr. Weight of chocolate was taken before and after each session to determine intake.
Drug Administration. Upon completion of the 12 acquisition sessions of binge-like eating rats continued to be exposed to chocolate sessions twice a week for 1-hr in empty feeding cages with a ceramic dish containing chocolate. One session was for maintenance of the binge-like behavior, and then the second was for drug treatment. These sessions took place randomly throughout the week with the maintenance session always occurring prior to the drug treatment session. Compound 1 was dissolved in 0.3% Tween 80 in dH2O. Vehicle (VEH), or doses of 5.0, 10.0, and 20.0 mg/kg were administered via oral gavage once a week for testing. A pre-treatment lead time of four hours was used. A within-subjects design was used in this study, with each rat receiving one treatment per week for a total of four weeks. Treatment conditions were selected randomly.
Data Analysis. Repeated measures ANOVA and planned comparisons were used to assess the effect of Compound 1 on binge-like eating of chocolate.

[1] = system: adult male Sprague Dawley rats; assay: Progressive ratio (PROG)/Chow feeding choice task; details: for standard chow intake vs VEH / lever pressing vs VEH: 30-minute session; for chow intake vs VEH, high responders / lever pressing vs VEH, high responders: high responder group (n=15); for lever presses, low responders (chow-intake analysis, FIG. 15) / lever pressing vs VEH, low responders: low responder group (n=16); for lever presses, low responders (chow-intake analysis, FIG. 15): Dunnett's test
Procedure: The PROG/Chow feeding choice procedure was used as a test designed to evaluate the effort a rat is willing to make to eat a palatable food by pressing a lever instead of eating freely available standard food.
Methods. Thirty-one (n=31) adult male Sprague Dawley rats were used in this study. The animals were restricted to 85% of their free-feeding weight, with modest growth allowed throughout the study period. Animals were assessed using operant conditioning chambers. Animals were first introduced to the high carbohydrate pellets (“palatable food”) and trained to lever press using a continuous reinforcement schedule with a fixed ration of one (FR1=one active lever press trigger the delivery of the palatable food) for one week. After this, the rats were trained on the progressive ratio (progressively more lever pressures were needed to trigger the delivery of the palatable food) schedule alone for nine weeks at which point chow (“standard food”) was introduced (=PROG/Chow feeding choice procedure), and animals trained for another 5 weeks to acquire a steady baseline. Each session lasted 30 minutes and rats ran in the operant chambers once a day, five days a week (Monday-Friday). Vehicle (VEH), or Compound 1 doses of 5.0, 10.0, and 20.0 mg/kg were administered via oral gavage once a week (Thursday or Friday) after the training period. Treatment conditions were selected randomly. Lever presses and chow consumption (including spillage) were recorded after each operant session.
Statistical analyses. Repeated measures analysis of variance test (ANOVA) and planned comparisons were used to assess the data overall. Factorial ANOVA was used to assess group x treatment interaction. If significant interactions were found, planned comparisons (using the overall error term) were used to assess the groups individually. Dunnett's tests were also used to analyze differences between drug treatments and VEH. A p value of <0.05 was considered statistically significant for all analyses.

Male Long Evans Rats = assay: 5-choice serial reaction time task (5-CSRTT)
Excerpt: The 5-choice serial reaction time task (5-CSRTT) is widely used to measure attentional performance and response control (motor impulsivity) in rodents. A strength of the test is its adaptability to task modification. Variations to stimulus duration and frequency of stimulus presentation, amongst others, have become commonly used to challenge performance in the context of attention and response control. The primary objective of these studies was to examine the effect of Compound 1 on attentional performance and on aspects of response control, defined as premature responses (PREM) and perseverative responses (PSV), measures of impulsive action, and compulsive action respectively. Two experimental manipulations were undertaken to differentially challenge performance. Specifically, (1) test Compound 1 (1, 3, 10 mg/kg) under standard test conditions of 0.75 s SD, 5 s ITI, 100 trials, and (2) test Compound 1 (1, 3 mg/kg) against a long ITI challenge. The long ITI challenge is designed to elevate PREM and PSV responses and so provide a means to examine the effect of both test articles on measures of impulsive and compulsive action.
• Dosage form: 0.3% Tween80 in 0.9% Saline • Pretreatment time: 180 minutes
• Dosage form: Compound 1 was suspended in 0.3% Tween80 in 0.9% Saline and sonicated. Drug was administered at a volume of 5 mL/kg, oral (PO) route. • Pretreatment time: 180 minutes • Doses tested: Phase 1: 1, 3, 10 mg/kg; Phase 2: 1, 3 mg/kg
Housing and Management of Test System: Following a one-week period of familiarization to the test facility, animals were placed on a restricted diet regimen, in which they were fed approximately 20 g of standard laboratory chow once per day (corresponding to ˜80% of normal food consumption) following the completion of study procedures (between 16:00 h and 18:00 h). Overall food intakes were therefore based on food earned during 5-choice training/testing and chow at the end of each study day. On days where no training/testing occurred, the daily allotted lab chow was increased to approximately 24 g per animal. Water was available ad-libitum except during 5-choice training/testing sessions. Animals were maintained on a 12 h/12 h light/dark cycle with all testing conducted during the animals' light cycle.
5-choice serial reaction time task: 5-choice operant chambers were housed in sound-insulated and ventilated enclosures. Chambers consisted of an aluminum enclosure (25×30 cm), containing a reward magazine attached to a food pellet dispenser and house light on one wall, and on the opposite wall an array of 5 square niches (2.5×2.5×2.5 cm) arranged on a curved panel and raised 2.5 cm from the grid floor. An LED was positioned at the rear of each niche. Each niche, and the reward magazine, also contained a photocell to detect head entry. Test chambers were controlled by Med PC software.
The 5-CSRTT schedule began with the illumination of the house light and delivery of a food pellet. A nose-poke into the magazine tray initiated the first trial which consisted of an inter-trial interval (ITI, 5 s) followed by the random illumination of one of the 5 lights for a fixed interval (stimulus duration, SD). If a nose-poke was registered in the illuminated niche before the end of either the SD, or a fixed interval after this period (limited hold, LH) a further pellet was dispensed and a Correct Trial registered. […] PSV responses were not punished by a TO.
Each session ran for either 100 trials or 60 min, depending on which session endpoint was achieved first. Animals were trained via a series of steps to final test conditions of 0.75 s SD, 5 s ITI, 5 s limited hold. Target performance was stable performance around a threshold of 80% correct ([correct/(correct+incorrect)]*100) and <20% omissions for at least a two week period. At this point drug testing began according to a repeated measures design with animals receiving treatment over repeated test sessions. […]

[2] = system: adult male Sprague Dawley rats; assay: Fixed ratio 1 (FR1) schedule probe
Excerpt: A fixed ratio 1 (FR1) schedule was used, and this task is the most food dense and appetite dependent operant schedule, with high sensitivity to appetite-related manipulations such as pre-feeding and appetite suppressant drugs.
Methods. The same adult male Sprague Dawley rats (n=31) as in Example 5 were used in this study. Animals trained once daily on the PROG/Chow feeding choice procedure from Monday through Thursday. On Friday, the testing day, the animals were switched from the PROG/Chow feeding choice procedure to FR1 with no prior training. Each operant session lasted 30 minutes and lever presses were recorded at the end of the run. Drug treatment and the FR1 probe occurred on the Friday after two weeks of washout period from Example 5. A dose of 20.0 mg/kg of Compound 1 or vehicle was administered via oral gavage on the testing day. Only the highest dose was tested in this study because, in Example 5, it produced the most robust decrease in lever pressing and chow intake compared to VEH. Treatment conditions were assigned randomly. Treatment group difference was assessed by unpaired t-test. A p value of <0.05 was considered statistically significant.

[3] = system: adult male Sprague-Dawley rats; assay: Sleep/wake parameters, repeated measures; details: first 6 hours post-dosing, n=8
Procedure: Using a counter-balanced, repeated measures design, three doses of Compound 1 (1-10 mg/kg, p.o.) were tested for their effects on sleep/wake parameters in adult male Sprague-Dawley rats (n=8). The results were compared with the effects on caffeine (10 mg/kg).
Methods. Eight (n=8) adult male Sprague Dawley rats were used in this study. Each rat received Compound 1 at 3 doses (1, 3 and 10 mg/kg), vehicle (purified H2O-negative control) and caffeine (10 mg/kg—positive control). […] Sleep parameters (non-rapid eye movement sleep, NR; rapid eye movement sleep, REM) were recorded and the first 6 hours post-dosing records were analyzed.

[4] = 10.0 mg/kg oral gavage, n=31, p<0.001
[5] = 20.0 mg/kg oral gavage, n=31, p<0.001
[6] = standard conditions 0.75 s SD, 5 s ITI, 100 trials, 1, 3, 10 mg/kg PO, P<0.01
[7] = standard conditions, 1, 3, 10 mg/kg PO

CCC[C@]1(C(=O)c2ccc(Cl)c(Cl)c2)CCNC1 [Compound 1, (3,4-dichloro-phenyl)-((S)-3-propyl-pyrrolidin-3-yl)-methanone]
chocolate intake vs VEH (male Sprague-Dawley rats; 5.0 mg/kg oral gavage, n=8, n.s.): did not significantly suppress chocolate intake
chocolate intake vs VEH (male Sprague-Dawley rats; 10.0 mg/kg oral gavage, n=8, p<0.001): significant reductions in chocolate intake
chocolate intake vs VEH (male Sprague-Dawley rats; 20.0 mg/kg oral gavage, n=8, p<0.001): significant reductions in chocolate intake
binge eating in animal model (FIGS. 8 and 9) (male Sprague-Dawley rats; rat, in vivo): effective in controlling binge eating
standard chow intake vs VEH ([1]; 5.0 mg/kg oral gavage, n=31, p<0.001): significant decreases
lever pressing vs VEH ([1]; 5.0 mg/kg oral gavage, n=31, p=n.s.): No significant difference
lever pressing vs VEH [1, 4]: significant decreases in lever pressing
standard chow intake vs VEH [1, 4]: significant decreases
lever pressing vs VEH [1, 5]: significant decreases in lever pressing
standard chow intake vs VEH [1, 5]: significant decreases
overall conclusion on appetite ([1]; 5.0-20.0 mg/kg oral gavage): appetite suppressant effects
chow intake vs VEH, high responders ([1]; 5.0 mg/kg, p<0.010): significant decreases in chow intake
lever pressing vs VEH, high responders ([1]; 5.0 mg/kg, p=n.s.): no significant difference
chow intake vs VEH, high responders ([1]; 10.0 mg/kg, p<0.001): significant decreases in chow intake
lever pressing vs VEH, high responders ([1]; 10.0 mg/kg, p<0.001): significant decreases in lever pressing
chow intake vs VEH, high responders ([1]; 20.0 mg/kg, p<0.001): significant decreases in chow intake
lever pressing vs VEH, high responders ([1]; 20.0 mg/kg, p<0.001): significant decreases in lever pressing
lever presses, low responders (chow-intake analysis, FIG. 15) ([1]; 5.0 mg/kg, p<0.001): significant decreases in lever presses
lever pressing vs VEH, low responders ([1]; 5.0 mg/kg, p=n.s.): no significant differences
lever presses, low responders (chow-intake analysis, FIG. 15) ([1]; 10.0 mg/kg, p<0.001): significant decreases in lever presses
lever pressing vs VEH, low responders ([1]; 10.0 mg/kg, p=n.s.): no significant differences
lever presses, low responders (chow-intake analysis, FIG. 15) ([1]; 20.0 mg/kg, p<0.001): significant decreases in lever presses
lever pressing vs VEH, low responders ([1]; 20.0 mg/kg, p=n.s.): no significant differences
PREM responses in low/high impulsive subgroups (Male Long Evans Rats; 10 s ITI schedule, 1 and 3 mg/kg PO, LI and HI subgroups, P<0.01): main effects of treatment and subgroup x treatment interactions
PSV responses in low/high impulsive subgroups (Male Long Evans Rats; 10 s ITI schedule, 1 and 3 mg/kg PO, LI and HI subgroups, treatment P=0.02, interaction P<0.01): main effects of treatment and subgroup x treatment interactions
any task measure (accuracy % correct, % hit, PREM/PSV responses) (Male Long Evans Rats; 10 s ITI, 0.3 s SD schedule, 1 and 3 mg/kg PO, all N=21 rats, F2,40≤2.5, NS): no main effects of treatment on any measure
impulsive behaviors in rats (Male Long Evans Rats; FIGS. 10A and 10B): reduces impulsive behaviors
perseverative (PSV) responses relative to vehicle (Male Long Evans Rats; [6]): dose-related decrease; also recorded: dose-dependently reduced
premature (PREM) responses relative to vehicle (Male Long Evans Rats; [6]): dose-related decrease; also recorded: dose-dependently reduced
trial number (Male Long Evans Rats; standard conditions, 10 mg/kg PO): decreased
accuracy (Male Long Evans Rats; [7]): no main effects of treatment; also recorded: no adverse effects
speed of responding (Male Long Evans Rats; [7]): no adverse effects
rats that pressed the lever but refrained from eating some of the pellets ([2]; 20.0 mg/kg oral gavage): 6 of the 16
lever pressing vs VEH in FR1 probe ([2]; 20.0 mg/kg oral gavage, 30-minute session, unpaired t-test t=9.74, p<0.001): significant decrease in lever pressing
uneaten pellets left in the food dishes of these animals ([2]; 20.0 mg/kg, after the 30-minute operant session): 5-10 pellets
REM sleep ([3]; 3 mg/kg p.o.): reduced REM sleep, but to a lesser extent
wake ([3]; 3 mg/kg p.o.): significantly increased wake
REM sleep ([3]; 10 mg/kg p.o.): complete suppression of REM sleep
wake ([3]; 10 mg/kg p.o.): wake-promoting effects
